According to patent US8471061B2 (priority 2004, dated 2013):

Assays:
Chlorella sp. = experiment: Culturing of plankton; format: cell-based; details: for amount of cells: OD 660 nm: 1 mM additive
Method: (§1) 5-Aminolevulinic acid nitrate was added, to a concentration of 1 mM (194 ppm), to 100 ml of a sterilized culture shown in Table 17 (components of the culture), and a Chlorella sp. was inoculated therein and cultured on a reciprocal shaker at 30° C. under aerobic and dark conditions to measure the amount of cells (OD 660).
as §1, with “acid hydrochloride” for “acid nitrate”, “mM (168” for “mM (194”, “of the” for “of a”, “and the” for “and a”
The Chlorella sp. was inoculated into 100 ml of the sterilized culture shown in Table 17 (components of the culture) and cultured on a reciprocal shaker at 30° C. under aerobic and dark conditions to measure the amount of cells (OD 660).

radish = experiment: Plant activating effect, foliar application, radish; format: in vivo; details: 21 days, 12 seeds
Method: After 600 g of upland soil was packed in a porcelain pot of 12 cm in inner diameter, 12 grains of radish seeds were sowed therein, covered with 5 mm in depth of the soil and allowed to grow in a green house. Foliar application treatment was carried out once a day using the following application liquids. Conditions of the leaves 21 days thereafter were observed.

[1] = Chloride ion concentration of aqueous solutions by ion chromatography; format: physicochemical; details: detection limit 0.1 ppm; each sample
Method: When chloride ion concentration in the aqueous 5-aminolevulinic acid phosphate solutions used in the above-described examples was measured by ion chromatography under the following conditions, it was equal to or lower than the detection limit (0.1 ppm) in each sample.
(§2) The measuring conditions are as follows; A: separation column (IonPac AS12A manufactured by Japan Dionex), B: guard column (IonPac AG12A manufactured by Japan Dionex), C: eluting solution (an aqueous solution containing Na2CO3: 3.0 mmol/l and NaHCO3: 0.5 mmol/l), D: flow rate (1.5 ml/min), E: suppressor (ASRS (recycle mode, current value 50 mA)), F: amount of introduced sample (25 μl), G: temperature of constant temperature oven (35° C.) and H: detector (electric conductivity detector).
When chloride ion concentration in the aqueous 5-aminolevulinic acid nitrate solutions used in the above-described examples was measured by ion chromatography under the following conditions, it was equal to or lower than the detection limit (0.1 ppm) in each sample.
as §2, with “follows:” for “follows;”, “consisting of” for “containing”
When chloride ion concentration in the aqueous 5-aminolevulinic acid p-toluenesulfonate solutions used in the above-described examples was measured by ion chromatography under the following conditions, it was equal to or lower than the detection limit (0.1 ppm) in each sample.

apple variety “Fuji” = experiment: Coloring test of apple; format: in vivo; details: for Coloring of red compared with 5-aminolevulinic acid hydrochloride: in vivo
Method: The 5-aminolevulinic acid phosphate obtained in Example 1 was dissolved in ion exchange water to the predetermined concentration shown in the following table. A spreader (“Approach BI” manufactured by Maruwa Biochemical) was added to the liquid to a concentration of 0.1% by weight. The pH was adjusted using phosphoric acid.
An aqueous 5-aminolevulinic acid hydrochloride solution was prepared in the same manner, except that the above-described 5-aminolevulinic acid phosphate was changed to 5-aminolevulinic acid hydrochloride and the phosphoric acid for pH adjustment was changed to hydrochloric acid.
The thus prepared liquid was sprayed at a ratio of 2 liters per branch on three main branches where young fruits of an apple variety “Fuji” bored but not yet colored into red (September 15). About 2 months thereafter (November 6), the apples were harvested and their coloring degree was examined. A color meter CR-200 manufactured by MINOLTA CAMERA was used for the measurement of color.
The 5-aminolevulinic acid nitrate obtained in Example 16 was dissolved in ion exchange water to the predetermined concentration shown in Table 16. A spreader (“Approach BI” manufactured by Maruwa Biochemical) was added to the liquid to a concentration of 0.1% by weight. The pH was adjusted using nitric acid.
A solution was prepared in the same manner, except that the above-described 5-aminolevulinic acid nitrate was changed to 5-aminolevulinic acid hydrochloride and the nitric acid was changed to hydrochloric acid.
The 5-aminolevulinic acid p-toluenesulfonate obtained in Example 23 was dissolved in ion exchange water to the predetermined concentration shown in Table 24. A spreader (“Approach B1” manufactured by Maruwa Biochemical) was added to the liquid to a concentration of 0.1% by weight. The pH was adjusted using p-toluenesulfonic acid.
A solution was prepared in the same manner, except that the above-described 5-aminolevulinic acid p-toluenesulfonate was changed to 5-aminolevulinic acid hydrochloride and the p-toluenesulfonic acid was changed to hydrochloric acid.

[2] = Test on the generation of silver chloride precipitation with silver nitrate; format: physicochemical; details: 0.5 g with 0.5 g of silver nitrate in 10 ml of ion exchange water, 5 minutes
Method: In 10 ml of ion exchange water, 0.5 g of 5-aminolevulinic acid phosphate and 0.5 g of silver nitrate were dissolved, the mixture was allowed to stand still for 5 minutes, and conditions of the liquid was observed. […] In this connection, 0.5 g of 5-aminolevulinic acid hydrochloride and 0.5 g of silver nitrate were dissolved in 10 ml of ion exchange water and allowed to stand still for 5 minutes, and conditions of the liquid was observed.
In 10 ml of ion exchange water, 0.5 g of 5-aminolevulinic acid nitrate and 0.5 g of silver nitrate were dissolved, the mixture was allowed to stand still for 5 minutes, and conditions of the liquid was observed.
In this connection, 0.5 g of 5-aminolevulinic acid hydrochloride and 0.5 g of silver nitrate were dissolved in 10 ml of ion exchange water and allowed to stand still for 5 minutes, and conditions of the liquid was observed.
In 10 ml of ion exchange water, 0.5 g of 5-aminolevulinic acid p-toluenesulfonate and 0.5 g of silver nitrate were dissolved, the mixture was allowed to stand still for 5 minutes, and conditions of the liquid was observed.

[3] = Degradation test by sterilization; format: physicochemical
Method: Firstly, 50 mg of 5-aminolevulinic acid p-toluenesulfonate or 5-aminolevulinic acid hydrochloride was heat sterilized (121° C., 20 minutes, 1.5 kgf/cm^2). After confirming that there is no change in weight before and after the sterilization, degree of degradation of 5-aminolevulinic acid before and after the sterilization was verified by the method described in a reference (Clin. Chem., 36/8, 1494 (1990)).

For `NCC(=O)CCC(=O)O.O=[N+]([O-])O` [5-aminolevulinic acid nitrate, 5-aminolevulinic Acid Nitrate], the “effect on Chlorella culture compared with hydrochloride” value (Chlorella sp.) was “showed the same effect of 5-aminolevulinic acid hydrochloride”, the “amount of cells: OD 660 nm” value (Chlorella sp.; Culture time 0 day) was 1.8 and the “amount of cells: OD 660 nm” value (Chlorella sp.; Culture time 1 day) was 6.5. For the same compound, the “amount of cells: OD 660 nm” value (Chlorella sp.; Culture time 2 day) was 12.6, the “amount of cells: OD 660 nm” value (Chlorella sp.; Culture time 3 day) was 15.0 and the “plants judged 0: Abnormality was not found on the leaf surface” value (radish; 1 ppm in tap water) was 5 plants. The “plants judged 1: A region discolored to yellow was found on the leaf surface” value (“plants judged 1: A region discolored” below) (radish; 1 ppm in tap water) was 5 plants, the “plants judged 2: A necrotic region was found on the leaf surface” value (radish; 1 ppm in tap water) was 2 plants and the “plants judged 0: Abnormality was not found on the leaf surface” value (radish; 10 ppm in tap water) was 6 plants. For the same compound, the “plants judged 1: A region discolored” value (radish; 10 ppm in tap water) was 5 plants, the “plants judged 2: A necrotic region was found on the leaf surface” value (radish; 10 ppm in tap water) was 1 plant^ plants and the “plants judged 0: Abnormality was not found on the leaf surface” value (radish; 100 ppm in tap water) was 4 plants. For the same compound, the “plants judged 1: A region discolored” value (radish; 100 ppm in tap water) was 6 plants, the “plants judged 2: A necrotic region was found on the leaf surface” value (radish; 100 ppm in tap water) was 2 plants and the “chloride ion concentration in the aqueous solutions used in the examples” value [1] was ≤ 0.1 ppm. The “Coloring, L” value (apple variety “Fuji”; 100 ppm (pH 5.0)) was 42.41, the “Coloring, a” value (apple variety “Fuji”; 100 ppm (pH 5.0)) was 26.51 and the “Coloring, b” value (apple variety “Fuji”; 100 ppm (pH 5.0)) was 14.46. The “Coloring, L” value (apple variety “Fuji”; 200 ppm (pH 4.9)) was 42.47, the “Coloring, a” value (apple variety “Fuji”; 200 ppm (pH 4.9)) was 31.00 and the “Coloring, b” value (apple variety “Fuji”; 200 ppm (pH 4.9)) was 14.72. For the same compound, the “Coloring of red compared with 5-aminolevulinic acid hydrochloride” value (apple variety “Fuji”) was “Coloring of red was denser” and the generation of precipitate [2] was “Generation of the precipitate was not found”.

With `Cc1ccc(S(=O)(=O)O)cc1.NCC(=O)CCC(=O)O` [5-aminolevulinic acid p-toluenesulfonate, 5-aminolevulinic Acid p-toluenesulfonate] the “degradability by high temperature heat sterilization compared with hydrochloride” value [3] was “lower degradability”, the “Degradation degree (%)” value ([3]; 50 mg heat sterilized, 121° C., 20 minutes, 1.5 kgf/cm^2) was 2.7% and the “plants judged 0: Abnormality was not found on the leaf surface” value (radish; 1 ppm in tap water) was 6 plants. The “plants judged 1: A region discolored” value (radish; 1 ppm in tap water) was 3 plants, the “plants judged 2: A necrotic region was found on the leaf surface” value (radish; 1 ppm in tap water) was 3 plants and the “plants judged 0: Abnormality was not found on the leaf surface” value (radish; 10 ppm in tap water) was 5 plants. For the same compound, the “plants judged 1: A region discolored” value (radish; 10 ppm in tap water) was 5 plants, the “plants judged 2: A necrotic region was found on the leaf surface” value (radish; 10 ppm in tap water) was 2 plants and the “plants judged 0: Abnormality was not found on the leaf surface” value (radish; 100 ppm in tap water) was 7 plants. For the same compound, the “plants judged 1: A region discolored” value (radish; 100 ppm in tap water) was 4 plants, the “plants judged 2: A necrotic region was found on the leaf surface” value (radish; 100 ppm in tap water) was 1 plant^ plants and the “chloride ion concentration in the aqueous solutions used in the examples” value [1] was ≤ 0.1 ppm. The “Coloring, L” value (apple variety “Fuji”; 100 ppm (pH 5.0)) was 42.39, the “Coloring, a” value (apple variety “Fuji”; 100 ppm (pH 5.0)) was 26.44 and the “Coloring, b” value (apple variety “Fuji”; 100 ppm (pH 5.0)) was 14.69. The “Coloring, L” value (apple variety “Fuji”; 200 ppm (pH 4.9)) was 42.36, the “Coloring, a” value (apple variety “Fuji”; 200 ppm (pH 4.9)) was 30.93 and the “Coloring, b” value (apple variety “Fuji”; 200 ppm (pH 4.9)) was 14.34. For the same compound, the “Coloring of red compared with 5-aminolevulinic acid hydrochloride” value (apple variety “Fuji”) was “Coloring of red was denser” and the generation of precipitate [2] was “Generation of the precipitate was not found”.
